Source: ChEMBL document CHEMBL3621161, “Conformationally restrained carbamoylcholine homologues. Synthesis, pharmacology at neuronal nicotinic acetylcholine receptors and biostructural considerations” (Eur J Med Chem, 2015)
Activity calls are given as the source filed them. The rule behind the calls is not given here.

Tests used:
[1] = target: Neuronal acetylcholine receptor; alpha4/beta4 (Rattus norvegicus, UniProt P09483+P12392); experiment: Displacement of [3H]epibatidine from rat neuronal acetylcholine receptor subunit alpha4beta4 expressed in HEK293 cell membranes incubated for 4 hrs by scintillation counting method
Sequence of Neuronal acetylcholine receptor; alpha4/beta4 (P09483 whole entry): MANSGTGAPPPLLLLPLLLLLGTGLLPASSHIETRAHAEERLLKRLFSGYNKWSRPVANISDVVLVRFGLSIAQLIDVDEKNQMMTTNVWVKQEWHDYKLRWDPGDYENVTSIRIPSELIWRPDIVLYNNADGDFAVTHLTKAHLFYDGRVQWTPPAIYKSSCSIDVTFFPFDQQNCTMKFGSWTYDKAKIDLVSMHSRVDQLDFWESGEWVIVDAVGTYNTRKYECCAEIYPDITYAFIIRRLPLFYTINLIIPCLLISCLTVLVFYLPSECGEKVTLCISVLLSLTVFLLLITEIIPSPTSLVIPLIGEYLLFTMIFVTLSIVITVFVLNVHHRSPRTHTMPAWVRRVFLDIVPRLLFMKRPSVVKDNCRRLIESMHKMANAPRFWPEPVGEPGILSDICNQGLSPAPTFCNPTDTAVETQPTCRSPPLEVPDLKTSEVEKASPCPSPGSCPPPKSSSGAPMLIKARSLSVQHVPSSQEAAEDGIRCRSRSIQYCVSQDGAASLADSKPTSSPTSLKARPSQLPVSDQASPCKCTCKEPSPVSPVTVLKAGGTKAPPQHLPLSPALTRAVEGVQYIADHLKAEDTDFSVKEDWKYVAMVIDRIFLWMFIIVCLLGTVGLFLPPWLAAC
Sequence of Neuronal acetylcholine receptor; alpha4/beta4 (P12392 whole entry): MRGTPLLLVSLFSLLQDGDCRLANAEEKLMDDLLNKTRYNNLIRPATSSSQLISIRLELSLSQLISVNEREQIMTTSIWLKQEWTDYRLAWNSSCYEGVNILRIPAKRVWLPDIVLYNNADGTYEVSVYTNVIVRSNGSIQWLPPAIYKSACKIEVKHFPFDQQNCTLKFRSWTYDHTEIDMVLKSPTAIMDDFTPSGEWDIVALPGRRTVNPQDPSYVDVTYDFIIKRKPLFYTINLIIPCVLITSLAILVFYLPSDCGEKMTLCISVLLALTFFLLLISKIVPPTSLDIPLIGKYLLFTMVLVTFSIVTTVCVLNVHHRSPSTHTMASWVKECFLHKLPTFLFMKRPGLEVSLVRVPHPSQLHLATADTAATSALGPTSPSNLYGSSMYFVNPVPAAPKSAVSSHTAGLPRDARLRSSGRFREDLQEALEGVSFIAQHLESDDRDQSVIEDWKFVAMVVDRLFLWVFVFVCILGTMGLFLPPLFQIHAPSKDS

[2] = target: Neuronal acetylcholine receptor; alpha4/beta2 (Rattus norvegicus, UniProt P09483+P12390); experiment: Displacement of [3H]epibatidine from rat neuronal acetylcholine receptor subunit alpha4beta2 expressed in HEK293 cell membranes incubated for 4 hrs by scintillation counting method
Sequence of Neuronal acetylcholine receptor; alpha4/beta2 (P09483 whole entry): as the sequence (P09483 whole entry) above
Sequence of Neuronal acetylcholine receptor; alpha4/beta2 (P12390 whole entry): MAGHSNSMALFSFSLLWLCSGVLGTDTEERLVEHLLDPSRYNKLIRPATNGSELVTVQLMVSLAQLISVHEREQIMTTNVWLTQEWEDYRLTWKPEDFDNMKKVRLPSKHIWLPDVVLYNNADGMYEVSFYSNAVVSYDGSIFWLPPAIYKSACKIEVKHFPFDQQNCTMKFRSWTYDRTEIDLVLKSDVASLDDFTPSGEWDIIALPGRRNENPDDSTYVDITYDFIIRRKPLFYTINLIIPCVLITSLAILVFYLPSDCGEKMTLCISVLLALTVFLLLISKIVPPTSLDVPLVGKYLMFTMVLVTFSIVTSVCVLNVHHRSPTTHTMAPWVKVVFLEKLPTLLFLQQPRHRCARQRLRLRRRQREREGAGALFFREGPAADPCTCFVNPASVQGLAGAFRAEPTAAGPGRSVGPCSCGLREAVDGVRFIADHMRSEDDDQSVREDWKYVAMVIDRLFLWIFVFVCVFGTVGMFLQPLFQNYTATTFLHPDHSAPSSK

[3] = target: T1, Neuronal acetylcholine receptor; alpha3/beta4 (Rattus norvegicus, UniProt P04757+P12392); experiment: Displacement of [3H]epibatidine from rat neuronal acetylcholine receptor subunit alpha3beta4 expressed in HEK293 cell membranes incubated for 4 hrs by scintillation counting method; details: for pKi: hek293
T1 sequence (P04757 whole entry): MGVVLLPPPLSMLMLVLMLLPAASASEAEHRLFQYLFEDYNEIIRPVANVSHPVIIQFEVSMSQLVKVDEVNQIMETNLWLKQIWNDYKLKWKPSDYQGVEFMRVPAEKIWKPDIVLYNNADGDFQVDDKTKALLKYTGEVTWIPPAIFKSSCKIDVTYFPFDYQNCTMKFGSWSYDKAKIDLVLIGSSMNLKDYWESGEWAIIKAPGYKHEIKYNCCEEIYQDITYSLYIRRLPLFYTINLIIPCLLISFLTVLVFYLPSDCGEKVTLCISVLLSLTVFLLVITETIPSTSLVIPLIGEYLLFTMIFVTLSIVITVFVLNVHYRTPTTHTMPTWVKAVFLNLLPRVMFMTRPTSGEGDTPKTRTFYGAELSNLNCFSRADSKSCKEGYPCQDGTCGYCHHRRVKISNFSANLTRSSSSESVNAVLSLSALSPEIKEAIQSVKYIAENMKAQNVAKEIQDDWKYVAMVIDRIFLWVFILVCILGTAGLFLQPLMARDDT
T1 sequence (P12392 whole entry): as the sequence (P12392 whole entry) above

[4] = target: T1, Neuronal acetylcholine receptor; alpha3/beta4; experiment: Agonist activity at rat neuronal acetylcholine receptor subunit alpha3beta4 expressed in HEK293 cells at 1 mM by FMP assay; type: cell-based; details: for pEC50: hek293
[5] = target: Neuronal acetylcholine receptor subunit alpha-4/beta-2 (Mus musculus) (UniProt Q9ERK7+O70174); experiment: Agonist activity at mouse neuronal acetylcholine receptor subunit alpha4beta2 expressed in HEK293T cells at 300 uM by FMP assay; type: cell-based; details: HEK-293T
Sequence of Neuronal acetylcholine receptor subunit alpha-4/beta-2 (Mus musculus) (O70174 31-629 partner limits assumed): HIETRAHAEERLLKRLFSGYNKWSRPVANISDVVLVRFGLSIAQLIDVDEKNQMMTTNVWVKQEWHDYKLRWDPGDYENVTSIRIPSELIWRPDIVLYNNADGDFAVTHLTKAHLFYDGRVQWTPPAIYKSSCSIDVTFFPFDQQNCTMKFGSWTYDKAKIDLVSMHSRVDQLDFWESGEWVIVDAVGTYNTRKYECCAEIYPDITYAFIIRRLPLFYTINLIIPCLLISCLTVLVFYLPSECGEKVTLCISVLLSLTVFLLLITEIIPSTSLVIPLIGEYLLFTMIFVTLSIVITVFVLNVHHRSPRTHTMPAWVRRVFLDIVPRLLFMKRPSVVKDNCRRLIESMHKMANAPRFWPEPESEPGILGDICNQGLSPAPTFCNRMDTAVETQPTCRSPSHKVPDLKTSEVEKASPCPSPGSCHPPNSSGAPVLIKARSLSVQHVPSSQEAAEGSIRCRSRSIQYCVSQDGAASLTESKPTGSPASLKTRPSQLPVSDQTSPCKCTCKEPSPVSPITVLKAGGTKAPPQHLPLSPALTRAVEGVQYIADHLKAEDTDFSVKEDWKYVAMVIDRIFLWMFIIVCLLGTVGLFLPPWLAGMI
Sequence of Neuronal acetylcholine receptor subunit alpha-4/beta-2 (Mus musculus) (Q9ERK7 26-501 limits assumed): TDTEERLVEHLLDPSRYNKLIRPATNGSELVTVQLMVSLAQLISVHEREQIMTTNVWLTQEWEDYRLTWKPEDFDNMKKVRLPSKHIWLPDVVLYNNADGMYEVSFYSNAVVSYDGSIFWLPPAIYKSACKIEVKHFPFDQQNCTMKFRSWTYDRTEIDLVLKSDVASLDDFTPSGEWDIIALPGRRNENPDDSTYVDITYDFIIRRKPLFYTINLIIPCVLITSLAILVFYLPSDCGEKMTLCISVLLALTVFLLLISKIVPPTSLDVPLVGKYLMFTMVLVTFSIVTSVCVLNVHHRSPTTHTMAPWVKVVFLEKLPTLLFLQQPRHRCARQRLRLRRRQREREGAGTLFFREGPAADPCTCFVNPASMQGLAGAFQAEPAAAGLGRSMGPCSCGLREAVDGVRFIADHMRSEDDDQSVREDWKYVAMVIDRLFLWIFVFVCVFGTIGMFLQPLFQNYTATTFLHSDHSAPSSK

[6] = target: T1, Neuronal acetylcholine receptor; alpha3/beta4; experiment: Agonist activity at rat neuronal acetylcholine receptor subunit alpha3beta4 expressed in HEK293 cells by FMP assay; type: cell-based
[7] = target: Neuronal acetylcholine receptor subunit alpha-4/beta-2 (Mus musculus, UniProt O70174+Q9ERK7); experiment: Agonist activity at mouse neuronal acetylcholine receptor subunit alpha4beta2 expressed in HEK293T cells by FMP assay; type: cell-based, HEK-293T
Sequence of Neuronal acetylcholine receptor subunit alpha-4/beta-2 (Q9ERK7 whole entry): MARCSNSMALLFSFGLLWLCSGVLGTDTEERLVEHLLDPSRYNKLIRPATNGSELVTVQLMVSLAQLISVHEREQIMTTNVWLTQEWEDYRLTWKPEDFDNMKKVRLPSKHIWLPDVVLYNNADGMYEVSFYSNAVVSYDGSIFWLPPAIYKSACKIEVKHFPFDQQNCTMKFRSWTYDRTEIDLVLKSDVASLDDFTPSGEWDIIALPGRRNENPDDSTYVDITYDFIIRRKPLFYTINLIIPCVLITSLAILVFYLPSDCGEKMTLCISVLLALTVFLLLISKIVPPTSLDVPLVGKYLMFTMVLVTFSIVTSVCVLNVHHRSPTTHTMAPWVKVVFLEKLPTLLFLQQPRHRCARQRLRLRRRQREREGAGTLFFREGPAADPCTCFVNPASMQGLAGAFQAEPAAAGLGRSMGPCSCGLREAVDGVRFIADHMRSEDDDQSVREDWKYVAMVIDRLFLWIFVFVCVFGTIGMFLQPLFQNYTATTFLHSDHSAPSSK
Sequence of Neuronal acetylcholine receptor subunit alpha-4/beta-2 (O70174 whole entry): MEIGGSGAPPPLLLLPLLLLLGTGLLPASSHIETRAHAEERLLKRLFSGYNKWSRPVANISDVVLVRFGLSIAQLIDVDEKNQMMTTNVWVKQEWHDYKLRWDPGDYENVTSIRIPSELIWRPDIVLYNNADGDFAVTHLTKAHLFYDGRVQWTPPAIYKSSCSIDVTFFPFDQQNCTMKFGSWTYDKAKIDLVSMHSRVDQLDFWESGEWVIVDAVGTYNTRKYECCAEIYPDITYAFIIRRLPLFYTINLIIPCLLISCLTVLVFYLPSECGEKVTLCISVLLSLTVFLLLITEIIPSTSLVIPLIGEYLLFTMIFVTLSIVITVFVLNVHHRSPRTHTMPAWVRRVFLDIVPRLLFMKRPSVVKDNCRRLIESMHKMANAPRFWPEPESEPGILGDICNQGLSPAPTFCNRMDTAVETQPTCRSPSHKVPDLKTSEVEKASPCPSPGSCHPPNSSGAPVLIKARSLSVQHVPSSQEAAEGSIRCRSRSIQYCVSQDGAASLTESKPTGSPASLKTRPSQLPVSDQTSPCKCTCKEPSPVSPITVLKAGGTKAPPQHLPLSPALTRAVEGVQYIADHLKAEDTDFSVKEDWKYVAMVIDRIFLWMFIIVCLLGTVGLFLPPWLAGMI

[8] = target: Neuronal acetylcholine receptor; alpha3/beta4 (Rattus norvegicus) (UniProt P04757+P12392); experiment: Agonist activity at rat neuronal acetylcholine receptor subunit alpha3beta4 expressed in HEK293 cells at 300 uM by FMP assay; type: cell-based

Compound: CN1CCN(C(=O)N(C)C)CC1
- Ki ([1]; read-out: Ki): 50 µM
- Ki [2]: 30 µM
- Ki ([3]; read-out: Ki): 50 µM

Compound: CCNC(=O)N1CCN(C)CC1
- Ki ([1]; read-out: Ki): 100 µM
- EC50 [4]: > 1000 µM
- pEC50 [4]: < 3
- Ki [2]: 10 µM
- Ki ([3]; read-out: Ki): 100 µM
- Activity [5]: Active

Compound: CNC(=S)N1CCN(C)CC1
- Ki ([1]; read-out: Ki): 500 µM
- Ki [2]: 19 µM
- pKi [3]: < 3
- Ki ([3]; read-out: Ki): > 1000 µM

Compound: CCNC(=S)N1CCN(C)CC1
- Ki ([1]; read-out: Ki): 300 µM
- EC50 [6]: 100 µM
- Ki [2]: 5.8 µM
- pKi [3]: < 3
- Ki ([3]; read-out: Ki): > 1000 µM
- Activity [5]: Active

Compound: CN(C)C(=O)C1CCNCC1
- pKi ([1]; hek293): < 3
- Ki ([1]; read-out: Ki): > 1000 µM
- Ki [2]: > 1000 µM
- pKi ([2]; hek293): < 3
- pKi [3]: < 3
- Ki ([3]; read-out: Ki): > 1000 µM

Compound: CN1CCCN(C(=O)N(C)C)CC1
- Ki ([1]; read-out: Ki): 300 µM
- Ki [2]: 50 µM
- Ki ([3]; read-out: Ki): 300 µM

Compound: CN(C)C(=O)N1CCCNCC1
- Ki ([1]; read-out: Ki): 50 µM
- Ki [2]: 11 µM
- Ki ([3]; read-out: Ki): 300 µM

Compound: CC(CCOC(=O)N(C)C)N(C)C (configuration not stated)
- Ki ([1]; read-out: pKi (converted)): 0.02 µM
- Ki ([3]; read-out: pKi (converted)): 0.02 µM

Compound: CC(CCOC(=O)N1CCCC1)N(C)C (configuration not stated)
- EC50 [7]: 7.1 µM

Compound: CN(C)C(=O)OC[C@H]1C[C@H]1N (racemic)
- Ki ([1]; read-out: Ki): 100 µM
- Ki [2]: 13 µM
- Ki ([3]; read-out: Ki): 300 µM

Compound: CN(C)C(=O)OC[C@H]1C[C@@H]1N(C)C (racemic)
- Ki ([1]; read-out: Ki): 1000 µM
- Ki [2]: 100 µM
- Ki ([3]; read-out: Ki): 1000 µM

Compound: CNC(=O)OC[C@H]1C[C@@H]1N(C)C.O=C(O)C(=O)O (racemic)
- Ki ([1]; read-out: Ki): 1000 µM
- Ki [2]: 300 µM
- pKi [3]: < 3
- Ki ([3]; read-out: Ki): > 1000 µM

Compound: CN(C)C(=O)OC[C@H]1C[C@H]1N(C)C (racemic)
- Ki ([1]; read-out: Ki): 14 µM
- Activity [8]: Active
- Ki [2]: 1.5 µM
- Ki ([3]; read-out: Ki): 14 µM
- Activity [5]: Active

Compound: CNC(=O)OC[C@H]1C[C@H]1N(C)C (racemic)
- Ki ([1]; read-out: Ki): 30 µM
- Activity [8]: Active
- Ki [2]: 2.1 µM
- Ki ([3]; read-out: Ki): 50 µM
- Activity [5]: Active

Compound: CN(C)C(=O)N1CCC(N(C)C)C1 (racemic)
- Ki ([1]; read-out: Ki): 2.3 µM
- EC50 [6]: 32 µM
- EC50 [7]: 10 µM
- Ki [2]: 6.4 µM
- Ki ([3]; read-out: Ki): 6.4 µM

Compound: CCNC(=O)N1CCC(N(C)C)C1 (racemic)
- Ki ([1]; read-out: Ki): 30 µM
- EC50 [6]: 100 µM
- Ki [2]: 5.7 µM
- Ki ([3]; read-out: Ki): 30 µM
- Activity [5]: Active

Compound: CNC(=S)N1CCC(N(C)C)C1 (racemic)
- Ki ([1]; read-out: Ki): 100 µM
- EC50 [4]: > 1000 µM
- pEC50 [4]: < 3
- Ki [2]: 2.3 µM
- Ki ([3]; read-out: Ki): 300 µM
- Activity [5]: Active

Compound: CCNC(=S)N1CCC(N(C)C)C1 (racemic)
- Ki ([1]; read-out: Ki): 300 µM
- EC50 [4]: > 1000 µM
- pEC50 [4]: < 3
- Ki [2]: 1.2 µM
- pKi [3]: < 3
- Ki ([3]; read-out: Ki): > 1000 µM
- Activity [5]: Active
